From paper PMC9631343 (ACS Bio & Med Chem Au, 2022)

Tested on: SARS-CoV-2 (Omicron variant, B.1.1.529.1/BA.1 sublineage)
Assay type: cell-based

OC[C@H]1O[C@@H](n2cnc3c(N[C@@H]4CCOC4)ncnc32)[C@H](O)[C@@H]1O [tecadenoson]
100% CPE inhibitory concentration (CPEIC100): 7.65 ± 0.25 µM
